Results as given in PMC8032668, “Evaluation of carboxyfluorescein-labeled 7-methylguanine nucleotides as probes for studying cap-binding proteins by fluorescence anisotropy” (Scientific Reports, 2021).

What was measured:
eIF4E = target: T1, eIF4E (Mus musculus, UniProt P63073); test: FA competition (probe-displacement) assay for eIF4E; format: binding, Murine; details: for EC50: HEPES pH 7.2
T1 construct: Murine eIF4E (residues 28–217) was expressed in E. coli; made in house; host or cells: E. coli
T1 sequence (P63073 28-217): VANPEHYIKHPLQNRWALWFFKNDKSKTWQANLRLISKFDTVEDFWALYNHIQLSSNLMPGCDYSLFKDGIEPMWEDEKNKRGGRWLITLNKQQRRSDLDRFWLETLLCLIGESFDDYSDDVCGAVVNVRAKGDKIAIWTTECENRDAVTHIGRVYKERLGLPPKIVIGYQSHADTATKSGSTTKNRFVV
Experimental: Inclusion bodies containing eIF4E were solubilized in 50 mM HEPES/KOH (pH 7.2) buffer containing 10% glycerol, 6 M guanidine hydrochloride and 2 mM DTT. Protein was then refolded during a two-step dialysis against buffer with decreasing concentration of guanidine hydrochloride in the presence of 100 mM KCl. Subsequently eIF4E was loaded on ion exchange HiTrap SP HP column (GE Healthcare), eluted with linear gradient of 0.1–1 M KCl and finally desalted and polished during a gel filtration purification step on HiLoad 16/600 Superdex 75 pg (GE Healthcare) using 50 mM HEPES pH 7.2, 100 mM KCl, 0.5 mM EDTA, 2 mM DTT buffer. eIF4E was aliquoted and stored in the presence of 10% glycerol at −80 °C. Before each experiment the protein was centrifuged on Ultrafree-MC Centrifugal PVDF filter with […] pore size (Millipore), at 4 °C and 3000×g for 2 min to remove any possible aggregates.
(§1) Experiments were carried out at 25 °C in 96-well non-binding microplates with sample volume of 200 µl per well. Two different buffers were used depending on protein used in the assay:
eIF4E assay buffer—50 mM HEPES (pH 7.2), 100 mM KCl, 0.5 mM EDTA, 1 mM DTT.
(§2) For competitive binding assay, a mixture containing the probe and the protein was incubated with the tested ligand.
(§3) In competitive measurements, a constant concentration of the protein and fluorescent probe and increasing concentration of the test ligand were used. At least 12 point dilutions of the tested compound were used. The experiments were carried out in 96-well plates. Each sample contained a mixture consisting of the probe, tested ligand and buffer (same as for the direct binding assay). The samples were incubated for 10 min at 25 °C with simultaneous shaking, then the protein was added to each well, incubated for additional 3 min, followed by the measurement of fluorescence anisotropy. FA signals were recorded for 20 min with 2 min intervals.

DcpS [1] = test system: DcpS; parameters: method as in PMID 27031609; details: DcpS inhibition, FR assay; cited from earlier work
DcpS [2] = target: T2, DcpS (Homo sapiens, UniProt Q96C86); test: FA competition assay for DcpS; format: binding
T2 construct: His tag; made in house; host or cells: E. coli BL21(DE3) RIL
T2 sequence (Q96C86 1-337): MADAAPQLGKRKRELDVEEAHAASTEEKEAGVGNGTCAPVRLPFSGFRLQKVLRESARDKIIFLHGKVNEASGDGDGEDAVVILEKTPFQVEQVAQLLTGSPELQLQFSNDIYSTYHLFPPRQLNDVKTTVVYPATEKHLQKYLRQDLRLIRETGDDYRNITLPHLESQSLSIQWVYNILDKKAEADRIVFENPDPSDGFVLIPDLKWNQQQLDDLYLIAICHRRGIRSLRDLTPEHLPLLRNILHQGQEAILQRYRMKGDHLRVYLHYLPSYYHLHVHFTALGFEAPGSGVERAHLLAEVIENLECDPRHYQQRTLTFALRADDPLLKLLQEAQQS
Experimental: Expression of recombinant His-tagged human DcpS was performed in BL21(DE3) RIL strain and induced overnight at 18 °C using 0.5 mM IPTG as described previously. Cells were harvested, resuspended in buffer (50 mM Tris pH 7.6, 500 mM NaCl, 20 mM imidazole) with lysozyme (0.1 mg/ml) and protease inhibitors (1 mM PMSF, 1 µM pepstatin A, 0.3 µM aprotinin) and then lysed using sonication. Lysate was clarified by centrifugation at 35 000 × g for 40 min at 4 °C. […] The enzyme hDcpS was purified to homogeneity on HiLoad 16/600 Superdex 200 pg (GE Healthcare) gel filtration column using 50 mM Tris·HCl pH 7.6, 200 mM NaCl, 2 mM DTT buffer. Protein was aliquoted and stored in the presence of 10% glycerol at -80 °C.
as §1
DcpS assay buffer—50 mM Tris–HCl (pH 7.6), 200 mM KCl, 0.5 mM EDTA, 1 mM DTT.
as §2, §3

DcpS [3] = target: T2, DcpS; test: FA screening of in-house library, 2i:DcpS system; format: binding; details: 1 nM 2i, 25 nM DcpS, 1.5 µM inhibitor
Experimental: The Z’ factor was determined under conditions optimized for the competition assay. The Z’ value exceeded 0.8 for incubation times up to 1 h, making the assay suitable for screening experiments (Table 5). A screening experiment was then performed using the same compound library as that used for eIF4E screening. The results highlighted the impact of the triphosphate bridge modification on the affinity for the protein. […] The FA method also enabled the identification of unstable compounds, e.g., hydrozylable ligands for which determination of affinity is problematic (as observed by FA signal changes during the experiment; Fig. 7).
To evaluate the quality of the assay, the Z’ factor was determined for several protein-probe combinations. The assay was performed on 96-well microplates, where half of the samples were negative controls and the other half were positive controls.
For the screening experiments a small in-house library containing 21 ligands was used. Experiments were conducted in the same manner as Z’ factor determination, with exception that the ligand concentration was modified (eIF4E screening conditions: 1 nM 1e, 100 nM eIF4E, 750 nM ligand, DcpS screening conditions: 1 nM 2i, 25 nM DcpS, 1.5 µM ligand). For eIF4E screening experiment, the 1e:eIF4E system was used, for DcpS screening 2i:DcpS system was used.

[4] = Probe 1a: 10 nM probe 1a and 100 nM eIF4E
[5] = Probe 1b: 1 nM probe 1b and 15 nM eIF4E
[6] = Probe 1e: footnote c, 1 nM probe 1c and 100 nM eIF4E
[7] = 1f:DcpS system, 1f and 100 nM DcpS
[8] = 2g:DcpS system, 2 nM 2g and 25 nM DcpS
[9] = 2i:DcpS system, 1 nM 2i and 25 nM DcpS
[10] = 2h:DcpS system, 2 nM 2h and 25 nM DcpS

Q: For `C[n+]1cn([C@@H]2O[C@H](COP(=O)([O-])OP(O)(=S)OP(=O)(O)OC[C@H]3O[C@@H](n4cnc5c(=O)[nH]c(N)nc54)[C@H](O)[C@@H]3O)[C@@H](O)[C@H]2O)c2nc(N)[nH]c(=O)c21` (single isomer, unassigned) [m^7GppSpG D1], which Hill slope (eIF4E; [4]) is on record?
A: The Hill slope was 1.37 ± 0.02.

Q: What about the EC50 (eIF4E; [4]) of the same compound?
A: The EC50 was 184 ± 13 nM.

Q: What about the Hill slope (eIF4E; [5]) of the same compound?
A: Its Hill slope is 1.16 ± 0.18.

Q: And the EC50 (eIF4E; [5])?
A: Its EC50 is 210 ± 32 nM.

Q: What about the Hill slope (eIF4E; [6]) of the same compound?
A: Its Hill slope is 1.10 ± 0.06.

Q: What about the EC50 (eIF4E; [6]) of the same compound?
A: Its EC50 is 226 ± 43 nM.

Q: Which results are given for `C[n+]1cn([C@@H]2O[C@H](COP(=O)([O-])OP(O)(=S)OP(=O)(O)OC[C@H]3O[C@@H](n4cnc5c(=O)[nH]c(N)nc54)[C@H](O)[C@@H]3O)[C@@H](O)[C@H]2O)c2nc(N)[nH]c(=O)c21` (single isomer, unassigned) [m^7GppSpG D2]?
A: Hill slope (eIF4E; [4]): 1.19 ± 0.06; EC50 (eIF4E; [4]): 382 ± 21 nM; Hill slope (eIF4E; [5]): 1.15 ± 0.06; EC50 (eIF4E; [5]): 511 ± 109 nM; Hill slope (eIF4E; [6]): 1.04 ± 0.17; EC50 (eIF4E; [6]): 477 ± 89 nM

Q: Which Hill slope (eIF4E; [4]) does the source give for `CO[C@@H]1[C@H](O)[C@@H](COP([O-])(=S)OP(=O)(O)OP(=O)(O)OP(=O)(O)OC[C@H]2O[C@@H](n3cnc4c(=O)[nH]c(N)nc43)[C@H](O)[C@@H]2O)O[C@H]1n1c[n+](C)c2c(=O)[nH]c(N)nc21` (single isomer, unassigned) [m^7′-OGpSpppG D1, m^7,2′-OGpSpppG D1] here?
A: The Hill slope was 2.07 ± 0.02.

Q: And the EC50 (eIF4E; [4])?
A: Its EC50 is 68 ± 3 nM.

Q: What about the Hill slope (eIF4E; [5]) of the same compound?
A: The Hill slope was 1.64 ± 0.10.

Q: And the EC50 (eIF4E; [5])?
A: Its EC50 is 22.2 ± 3.7 nM.

Q: And the Hill slope (eIF4E; [6])?
A: The Hill slope was 1.46 ± 0.60.

Q: And the EC50 (eIF4E; [6])?
A: The EC50 was 51.4 ± 6.1 nM.

Q: With `CO[C@@H]1[C@H](O)[C@@H](COP([O-])(=S)OP(=O)(O)OP(=O)(O)OP(=O)(O)OC[C@H]2O[C@@H](n3cnc4c(=O)[nH]c(N)nc43)[C@H](O)[C@@H]2O)O[C@H]1n1c[n+](C)c2c(=O)[nH]c(N)nc21` (single isomer, unassigned) [m^7′-OGpSpppG D2, m^7,2′-OGpSpppG D2] as the compound, how does the Hill slope (eIF4E; [4]) read?
A: The Hill slope was 1.94 ± 0.26.

Q: And the EC50 (eIF4E; [4])?
A: Its EC50 is 74 ± 10 nM.

Q: What about the Hill slope (eIF4E; [5]) of the same compound?
A: The Hill slope was 1.37 ± 0.08.

Q: What about the EC50 (eIF4E; [5]) of the same compound?
A: The EC50 was 34.9 ± 7 nM.

Q: And the Hill slope (eIF4E; [6])?
A: The Hill slope was 1.40 ± 0.06.

Q: And the EC50 (eIF4E; [6])?
A: Its EC50 is 64.3 ± 3.4 nM.

Q: What does the source list for `Cn1c[n+]([C@@H]2O[C@H](COP(=O)(O)OP(=O)([O-])O)[C@@H](O)[C@H]2O)c2nc(N)[nH]c(=O)c21` [m^7GDP]?
A: IC50 (DcpS [1]): 5.2 ± 1.2 µM; Hill slope (eIF4E; [4]): 1.36 ± 0.03; EC50 (eIF4E; [4]): 204 ± 5.5 nM; Hill slope (eIF4E; [5]): 1.16 ± 0.04; EC50 (eIF4E; [5]): 212 ± 30 nM; Hill slope (eIF4E; [6]): 1.08 ± 0.07; EC50 (eIF4E; [6]): 216 ± 11 nM; EC50 (DcpS [2]; [7]): 36.5 ± 3.6 nM; Hill slope (DcpS [2]; [7]): 1.98 ± 0.18; EC50 (DcpS [2]; [8]): 16.4 ± 0.2 nM; Hill slope (DcpS [2]; [8]): 1.55 ± 0.09; EC50 (DcpS [2]; [9]): 36.2 ± 4.7 nM; Hill slope (DcpS [2]; [9]): 1.42 ± 0.06; EC50 (DcpS [2]; [10]): 31.2 ± 10.7 nM; Hill slope (DcpS [2]; [10]): 1.06 ± 0.37

Q: For `Cn1c[n+]([C@@H]2O[C@H](COP(=O)(O)O)[C@@H](O)[C@H]2O)c2nc(N)[nH]c(=O)c21` [m^7GMP], which IC50 (DcpS [1]) is on record?
A: Its IC50 is 97 ± 21 µM.

Q: And the EC50 (DcpS [2]; [7])?
A: Its EC50 is 104 ± 11 nM.

Q: What about the Hill slope (DcpS [2]; [7]) of the same compound?
A: Its Hill slope is 1.19 ± 0.15.

Q: What about the EC50 (DcpS [2]; [8]) of the same compound?
A: The EC50 was 112 ± 11 nM.

Q: What about the Hill slope (DcpS [2]; [8]) of the same compound?
A: Its Hill slope is 1.04 ± 0.02.

Q: And the EC50 (DcpS [2]; [9])?
A: Its EC50 is 255 ± 14 nM.

Q: What about the Hill slope (DcpS [2]; [9]) of the same compound?
A: Its Hill slope is 1.00 ± 0.02.

Q: What about the EC50 (DcpS [2]; [10]) of the same compound?
A: Its EC50 is 357 ± 44 nM.

Q: What about the Hill slope (DcpS [2]; [10]) of the same compound?
A: Its Hill slope is 0.93 ± 0.07.

Q: Which “inhibitory potency in DcpS screening” value (DcpS [3]) does the source give for `C[n+]1cn([C@@H]2O[C@H](COP(=O)(O)CP(=O)(O)OP(=O)(O)OC[C@H]3O[C@@H](n4cnc5c(=O)[nH]c(N)nc54)[C@H](O)[C@@H]3O)[C@@H](O)[C@H]2O)c2nc(N)[nH]c(=O)c21` [m^7GpCH2ppG] here?
A: The value was “strong DcpS inhibitors”.

Q: Which “inhibitory potency in DcpS screening” value (DcpS [3]) does the source give for `C[n+]1cn([C@@H]2O[C@H](COP(=O)(O)CP(=O)(O)OP(=O)([O-])OP(=O)(O)OC[C@H]3O[C@@H](n4cnc5c(=O)[nH]c(N)nc54)[C@H](O)[C@@H]3O)[C@@H](O)[C@H]2O)c2nc(N)nc(O)c21` [m^7GpCH2pppG] here?
A: The value was “strong DcpS inhibitors”.
